Measurements published in PubChem BioAssay (NCI).
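Dose response: 5 concentrations. Exposure: 48 h. Format: 96-well plates. Endpoint: linear interpolation; highest concentration if not reached. GI50: concentration for 50% inhibition of growth. TGI denotes the concentration required for complete inhibition of growth.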

Columns and labels:
Experiment in all cases: DTP human tumour cell line panel, 48 h
MOLT-4 leukemia = system: MOLT-4 leukemia
SNB-19 CNS = system: SNB-19 CNS
SK-MEL-5 melanoma = system: SK-MEL-5 melanoma
KM12 colon = system: KM12 colon
HCT-15 colon = system: HCT-15 colon
NCI-H522 lung = system: NCI-H522 lung
TK-10 renal = system: TK-10 renal
IGROV1 ovarian = system: IGROV1 ovarian
OVCAR-4 ovarian = system: OVCAR-4 ovarian
A498 renal = system: A498 renal

Row | Structure (SMILES) | TGI (MOLT-4 leukemia) | TGI (SNB-19 CNS) | TGI (SK-MEL-5 melanoma) | TGI (KM12 colon) | TGI (HCT-15 colon) | TGI (NCI-H522 lung) | TGI (TK-10 renal) | TGI (IGROV1 ovarian) | TGI (OVCAR-4 ovarian) | TGI (A498 renal) | GI50 (MOLT-4 leukemia) | GI50 (SNB-19 CNS) | GI50 (SK-MEL-5 melanoma) | GI50 (HCT-15 colon) | GI50 (NCI-H522 lung) | GI50 (TK-10 renal) | GI50 (IGROV1 ovarian) | GI50 (OVCAR-4 ovarian) | GI50 (KM12 colon) | GI50 (A498 renal)
1 | CC(C)C/C(CC(=O)CCC(=O)Nc1ccccc1[N+](=O)[O-])=N\NC(=O)c1cc2ccccc2cc1O | > 100 µM | > 100 µM | 67.5 µM | > 100 µM | > 100 µM | 76 µM | > 100 µM | > 100 µM |  |  |  |  |  |  |  |  |  |  |  | 
2 | COc1cc2c(cc1OC)-c1c3cc(O)ccc3nn[n+]1CC2 | > 100 µM | > 100 µM | > 100 µM | > 100 µM |  | > 100 µM | > 100 µM | > 100 µM | > 100 µM |  |  |  |  |  |  |  |  |  |  | 
3 | Cc1cc(C)nc(NS(=O)(=O)c2ccc(NC(=O)c3ccc(Cl)c4c(Nc5ccc(S(=O)(=O)Nc6nc(C)cc(C)n6)cc5)c5ccccc5nc34)cc2)n1 | > 100 µM | > 100 µM | 73.1 µM | > 100 µM | > 100 µM |  | 83.1 µM | > 100 µM | 48.1 µM | 57.4 µM |  |  |  |  |  |  |  |  |  | 
4 | Cn1c2ccccc2c2c(Nc3ccccc3)c3ccccc3nc21 | > 100 µM | > 100 µM | 28.1 µM |  | 60.5 µM | > 100 µM | 43.8 µM | > 100 µM | > 100 µM |  | 7.89 µM | 11.5 µM | 13.7 µM | 14.1 µM | 45.6 µM | 15.8 µM | 61.3 µM | 21.1 µM |  | 
5 | CCCCC(=O)OCC(=O)[C@]1(O)Cc2c(O)c3c(c(O)c2[C@@H](OC2CC(NC(=O)C(F)(F)F)C(O)C(C)O2)C1)C(=O)c1c(OC)cccc1C3=O (some centres not stated) |  | 3.02 µM | 1.64 µM | > 70.8 µM | 6.9 µM | 3.9 µM | 15.1 µM | 17 µM | 8.71 µM | 0.948 µM |  |  |  |  |  |  |  |  |  | 
6 | O=C(O)CCc1coc2ccc(O)cc12 | > 100 µM | > 100 µM | > 100 µM |  | > 100 µM |  | > 100 µM | > 100 µM | > 100 µM | > 100 µM |  |  |  |  |  |  |  |  |  | 
7 | CCN(CCO)CC1CCCC2CCCCC21 (configuration not stated) |  | > 100 µM | > 100 µM | > 100 µM | > 100 µM | > 100 µM | > 100 µM | > 100 µM | > 100 µM | > 100 µM |  |  |  |  |  |  |  |  |  | 
8 | CC(=O)NNc1nc(C)c(C(=O)NNC(=O)C(=O)Nc2c(Cl)cc([N+](=O)[O-])cc2Cl)s1 | 97.6 µM | > 100 µM | > 100 µM | > 100 µM | > 100 µM |  | > 100 µM | > 100 µM | 63.2 µM | 66.3 µM |  |  |  |  |  |  |  |  |  | 
9 | NC(Cc1c[nH]c2c(O)cccc12)C(=O)O (configuration not stated) | > 100 µM | > 100 µM | > 100 µM | > 100 µM | > 100 µM | > 100 µM | > 100 µM | > 100 µM | > 100 µM |  | > 100 µM | > 100 µM | 49.6 µM | > 100 µM | > 100 µM | > 100 µM | > 100 µM | > 100 µM | > 100 µM | 
10 | CN1C(=O)C(C)(C)C2(SC(C)(C)C2(C)C)N(C)C1=S (configuration not stated) | > 100 µM | > 100 µM |  | > 100 µM | > 100 µM | > 100 µM |  | > 100 µM | > 100 µM |  |  |  |  |  |  |  |  |  |  | 
11 | O=C(O)CSc1ccc([N+](=O)[O-])cc1[N+](=O)[O-] |  | > 100 µM |  | > 100 µM | > 100 µM | > 100 µM | > 100 µM | > 100 µM | > 100 µM | > 100 µM |  |  |  |  |  |  |  |  |  | 
12 | COC(CN1C(=O)c2cccc3cccc(c23)C1=O)OC | > 100 µM | > 100 µM | > 100 µM | > 100 µM | > 100 µM |  | > 100 µM | > 100 µM | > 100 µM | > 100 µM |  |  |  |  |  |  |  |  |  | 
13 | C=C1C(=O)C23CC1CCC2C12CO[C@@H]4OCC(C)(CC[C@@H]1OC3=O)C42 (some centres not stated) | 9.7 µM | 20.3 µM | 28.3 µM | 17.3 µM | 7.88 µM | 2.33 µM | 13.8 µM | 14.1 µM |  | 34.8 µM |  |  |  |  |  |  |  |  |  | 
14 | NNC(=O)Nc1cccnc1 |  | > 100 µM | > 100 µM | > 100 µM | > 100 µM | > 100 µM | > 100 µM | > 100 µM | > 100 µM | > 100 µM |  |  |  |  |  |  |  |  |  | 
15 | COC1(OC)CCC2C1C1CCC(OC)(OC)C21 (configuration not stated) | > 50 µM | > 50 µM | > 50 µM | > 50 µM | > 50 µM | > 50 µM |  | > 50 µM | > 50 µM | > 50 µM |  |  |  |  |  |  |  |  |  | 
16 | COc1cc(CNc2cnc3cc(N)cc(N)c3n2)cc(OC)c1 | > 100 µM |  | 36.1 µM | 71.8 µM | 38.1 µM | 78.2 µM | 57.6 µM | > 100 µM |  |  | 36.9 µM |  | 18.7 µM | 17.6 µM | 23.8 µM | 18.4 µM | 33.6 µM |  | 22.5 µM | 
17 | O=C(COc1ccc(Br)cc1Br)N1N=C(c2ccc([N+](=O)[O-])o2)CC1(O)c1ccccc1 (configuration not stated) | 8.98 µM | 68.2 µM | 16.1 µM | 45.3 µM | 18.7 µM | 20.7 µM |  | 75.9 µM | > 100 µM | 23.8 µM |  |  |  |  |  |  |  |  |  | 
18 | CCCCOC(=O)C1OC(O[C@H]2CCC3(C)C(CCC4(C)C3CC=C3C5CC(C)(C)CCC5(C(=O)O)CC[C@]34C)C2(C)C)C(OC2OC(CO)C(O)C(O)C2O)C(OC2OC(CO)C(O)C(O)C2O)C1O (some centres not stated) | 36.4 µM | 53.6 µM | > 100 µM | 93.5 µM | 51 µM | > 100 µM | > 100 µM | > 100 µM |  |  | 7.77 µM | 22.5 µM | 33.1 µM | 20.9 µM | 43.9 µM | 33.3 µM | > 100 µM |  | 30.8 µM | 
19 | CCCCCN(CCCCC)CCCNc1c2c(nc3ccc(Cl)cc13)CCCC2 |  | 18.4 µM | 3.34 µM | 10.3 µM | 11.1 µM | 3.86 µM | 7.24 µM | 5.77 µM | 12 µM | 8.94 µM |  | 4.96 µM | 1.82 µM | 2.58 µM | 1.74 µM | 2.4 µM | 1.49 µM | 2.05 µM | 3.13 µM | 1.72 µM
20 | CC1(C)CCc2c(c3c(c4c(=O)c(O)c(-c5ccc(O)cc5)oc24)OC(C)(C)CC3)O1 | > 100 µM | > 100 µM | > 100 µM | > 100 µM | > 100 µM | > 100 µM | > 100 µM | > 100 µM | > 100 µM |  | 37.2 µM | 33.6 µM | > 100 µM | > 100 µM | > 100 µM | 36.6 µM | > 100 µM | > 100 µM | > 100 µM | 
21 | COc1cc(-c2nn(-c3ccc(NC(=O)c4ccc(Cl)c(C(F)(F)F)c4)cc3)cc2-c2ccncc2)ccc1Cl | 8.06 µM | > 100 µM | 3.15 µM | 4.84 µM | 4.21 µM |  | > 100 µM | > 100 µM | > 100 µM | 17.9 µM | 2.63 µM | 4.55 µM | 1.66 µM | 1.42 µM |  | 4.56 µM | 3.96 µM | 5.05 µM | 1.5 µM | 2.4 µM
22 | O=C(O)c1ccccc1[Se][Se]c1ccccc1C(=O)O | > 100 µM | 45 µM | > 100 µM | 89.1 µM | > 100 µM | > 100 µM | > 100 µM | > 100 µM |  | > 100 µM |  |  |  |  |  |  |  |  |  | 
23 | C=C(CN1CCN(c2ccc(Cl)cc2F)CC1)c1ccc(C(=O)Nc2ccccc2N)cc1 |  | > 34.3 µM | > 22.4 µM | > 59.7 µM | > 100 µM | 5.95 µM | > 100 µM | 14.8 µM | > 66.6 µM | > 80.4 µM |  |  | 2.3 µM | 2.16 µM | 2.19 µM | 3.53 µM | 1.16 µM |  | 2.26 µM | 3.03 µM
24 | CC1=C(C(=O)Nc2ccc(Cl)c(Cl)c2)C(c2cccc(Oc3ccccc3)c2)NC(=S)N1 (configuration not stated) | > 50 µM | 14.1 µM | 15 µM | 12.6 µM | 17.4 µM | 21.8 µM | 19.7 µM | 19 µM | 16.5 µM |  | > 50 µM | 7.07 µM | 7.89 µM | 8.93 µM | 11.7 µM | 11.3 µM | 7.72 µM | 7.56 µM | 5.71 µM | 
25 | COc1ccccc1C12OC(=O)C1(C)Oc1ccccc1C2=O (configuration not stated) | > 100 µM | > 100 µM | > 100 µM | > 100 µM | > 100 µM |  | > 100 µM | > 100 µM | > 100 µM | > 100 µM |  |  |  |  |  |  |  |  |  | 
26 | COc1cc(Cc2cnc(/N=C3\C(=O)N(CN4CCN(c5c(F)cc6c(=O)c(C(=O)O)cn(C7CC7)c6c5OC)CC4C)c4ccc(F)cc43)nc2N)cc(OC)c1OC (configuration not stated) | 6.97 µM | 51.3 µM | 35.2 µM | 35.9 µM | 5.18 µM | > 100 µM | 25.3 µM | > 100 µM |  | 49.7 µM | 1.16 µM | 17.7 µM | 18.3 µM | 1.35 µM | 63.5 µM | 11.6 µM | 25.1 µM |  | 13.7 µM | 26 µM
27 | CCOC(=O)CN1C(=O)c2cccc3cc([N+](=O)[O-])cc(c23)C1=O | 2.45 µM | 32.3 µM | 25.5 µM | 8.73 µM | 3.47 µM |  | 30.7 µM | 14.8 µM | 3.27 µM | 30.6 µM |  |  |  |  |  |  |  |  |  | 
